Assay results from patent US12428406B2 (PMV Pharmaceuticals, Inc., priority 2019, dated 2025).

biological target: T1, p53 Y220C (Homo sapiens, UniProt P04637, Y220C); assay: In vitro DNA binding activity assay (HTRF / TR-FRET): stabilization of p53 Y220C and increase of its DNA binding activity; assay type: biochemical; conditions: recombinant His-tagged p53 Y220C DNA binding domain (aa 94-312), biotin-labeled consensus DNA, incubated at 27° C. or 29° C. for 60 min
T1 construct: The recombinant protein was a truncation mutant containing only amino acids 94-312 of p53; made in house; host or cells: E. coli
Method in brief: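 Stabilization of the mutant is inferred from increased binding of His-tagged p53 Y220C to a biotin-labeled consensus DNA, detected by HTRF with europium-streptavidin and APC-anti-His antibody. The concentration giving a 50% rise over compound-free binding is reported as SC150.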

T1 sequence (P04637 94-312, change not shown): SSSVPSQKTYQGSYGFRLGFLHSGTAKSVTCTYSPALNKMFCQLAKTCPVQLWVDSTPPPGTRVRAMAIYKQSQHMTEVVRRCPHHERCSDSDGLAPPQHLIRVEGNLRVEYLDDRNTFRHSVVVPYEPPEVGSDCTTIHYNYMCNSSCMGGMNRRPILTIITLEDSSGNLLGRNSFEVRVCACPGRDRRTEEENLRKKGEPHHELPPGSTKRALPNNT

SMILES	SC150 (concentration of the compound required to increase the DNA binding activity by 50%)
COc1cc(S(C)(=O)=O)ccc1NCC#Cc1cc2c(N[C@H]3CC[C@H](N4CCOCC4)CC3)cccc2n1CC(C)C [Compound 179A, 2-{3-[(4-methane-sulfonyl-2-methoxy-phenyl)amino]prop-1-yn-1-yl}-1-(2-methyl-propyl)-N-[(1R,4R)-4-(morpholin-4-yl)cyclohexyl]-1H-indol-4-amine]	++ (++ = 0.05 μM ≤ SC150 < 0.1 μM)
CNC(=O)c1ccc(NCC#Cc2cc3c(N[C@H]4CC[C@H](N5CC6(COC6)C5)CC4)cccc3n2CC(F)(F)F)c(O)c1 [Compound 248A, 3-hydroxy-N-methyl-4-{[3-(4-{[(1R,4R)-4-{2-oxa-6-azaspiro[3.3]heptan-6-yl}cyclo-hexyl]amino}-1-(2,2,2-trifluoroethyl)-1H-indol-2-yl)prop-2-yn-1-yl]amino}benzamide]	+ (+ = 0 μM ≤ SC150 < 0.05 μM)
COCCN(C)[C@H]1CC[C@@H](Nc2cccc3c2cc(C#CCNc2ccc(S(N)(=O)=O)cc2OCC#N)n3CC(F)(F)F)CC1 [Compound 165A, 3-(cyanomethoxy)-4-{[3-(4-{[(1S,4S)-4-[(2-methoxyethyl)(methyl)amino]cyclohexyl]amino}-1-(2,2,2-trifluoroethyl)-1H-indol-2-yl)prop-2-yn-1-yl]amino}benzene-1-sulfonamide]	+ (+ = 0 μM ≤ SC150 < 0.05 μM)
CNC(=O)c1ccc(NCC#Cc2cc3c(N[C@H]4CC[C@H](N5CC[S+]([O-])CC5)CC4)cccc3n2CC(F)(F)F)c(OC)c1 [Compound 369A, 3-methoxy-N-methyl-4-{[3-(4-{[(1R,4R)-4-(1-oxo-1λ^4-thiomorpholin-4-yl)cyclohexyl]amino}-1-(2,2,2-trifluoroethyl)-1H-indol-2-yl)prop-2-yn-1-yl]amino}benzamide]	+ (+ = 0 μM ≤ SC150 < 0.05 μM)
CNC(=O)c1ccc(NCC#Cc2cc3c(NC4CCN(C[C@H](CO)OC)CC4)cccc3n2CC(F)(F)F)c(OC)c1 [Compound 649A, 4-({3-[4-({1-[(2R)-3-hydroxy-2-methoxypropyl]piperidin-4-yl}amino)-1-(2,2,2-trifluoroethyl)-1H-indol-2-yl]prop-2-yn-1-yl}amino)-3-methoxy-N-methylbenzamide]	+ (+ = 0 μM ≤ SC150 < 0.05 μM)
COc1cc(C(N)=O)ccc1NCC#Cc1cc2c(N[C@H]3CC[C@@H](N4CCOCC4)CC3)cccc2n1CC(F)(F)F [Compound 171A, 3-methoxy-4-{[3-(4-{[(1S,4S)-4-(morpholin-4-yl)cyclohexyl]amino}-1-(2,2,2-trifluoroethyl)-1H-indol-2-yl)prop-2-yn-1-yl]amino}benzamide]	+ (+ = 0 μM ≤ SC150 < 0.05 μM)
CS(=O)(=O)c1ccc(NCC#Cc2cc3c(N[C@H]4CC[C@@H](N5CC6(COC6)C5)CC4)cccc3n2CC(F)(F)F)c(OCC#N)c1 [Compound 223A, 2-(5-methanesulfonyl-2-{[3-(4-{[(1S,4S)-4-{2-oxa-6-azaspiro[3.3]heptan-6-yl}cyclo-hexyl]amino}-1-(2,2,2-trifluoroethyl)-1H-indol-2-yl)prop-2-yn-1-yl]amino}phenoxy) acetonitrile]	+ (+ = 0 μM ≤ SC150 < 0.05 μM)
COc1cc(S(C)(=O)=O)ccc1NCC#Cc1cc2c(NC3CCN(CCOC(=O)C(C)C)CC3)cccc2n1CC(F)(F)F [Compound 584A, 2-{4-[(2-{3-[(4-methanesulfonyl-2-methoxyphenyl)amino]prop-1-yn-1-yl}-1-(2,2,2-trifluoroethyl)-1H-indol-4-yl)amino]piperidin-1-yl} ethyl 2-methylpropanoate]	+ (+ = 0 μM ≤ SC150 < 0.05 μM)
CNC(=O)c1ccc(NCC#Cc2cc3c(N[C@H]4CC[C@](C)(O)CC4)cccc3n2CC(F)(F)F)c(OC)c1 [Compound 31A, 3-methoxy-N-methyl-4-{[3-(4-{[(1R,4R)-4-hydroxy-4-methylcyclohexyl]amino}-1-(2,2,2-trifluoroethyl)-1H-indol-2-yl)prop-2-yn-1-yl]amino}benzamide]	+ (+ = 0 μM ≤ SC150 < 0.05 μM)
COc1cc(S(N)(=O)=O)ccc1NCC#Cc1cc2c(N[C@H]3CC[C@H](N4CCS(=O)(=O)CC4)CC3)cccc2n1CC(F)(F)F [Compound 372A, 3-methoxy-4-{[3-(4-{[(1R,4R)-4-(1,1-dioxo-1λ^6-thiomorpholin-4-yl)cyclohexyl]amino}-1-(2,2,2-trifluoroethyl)-1H-indol-2-yl)prop-2-yn-1-yl]amino}benzene-1-sulfonamide]	+ (+ = 0 μM ≤ SC150 < 0.05 μM)
COc1cc(S(C)(=O)=O)ccc1NCC#Cc1cc2c(NC3CCN(CC4COC(=O)O4)CC3)cccc2n1CC(F)(F)F (stereo not shown) [Compound 545A, 4-({4-[(2-{3-[(4-methanesulfonyl-2-methoxyphenyl)amino]prop-1-yn-1-yl}-1-(2,2,2-trifluoroethyl)-1H-indol-4-yl)amino]piperidin-1-yl}methyl)-1,3-dioxolan-2-one]	+ (+ = 0 μM ≤ SC150 < 0.05 μM)
COc1cc(S(N)(=O)=O)ccc1NCC#Cc1cc2c(NC3CCN(C)CC3)cc(F)cc2n1CC(F)(F)F [Compound 474A, 4-[(3-{6-fluoro-4-[(1-methylpiperidin-4-yl)amino]-1-(2,2,2-trifluoroethyl)-1H-indol-2-yl}prop-2-yn-1-yl)amino]-3-methoxybenzene-1-sulfonamide]	+ (+ = 0 μM ≤ SC150 < 0.05 μM)
COCC(O)CN1CCC(Nc2cccc3c2cc(C#CCNc2ccc(S(C)(=O)=O)cc2OCCO)n3CC(F)(F)F)CC1 (stereo not shown) [Compound 644A, 1-(4-{[2-(3-{[2-(2-hydroxyethoxy)-4-methanesulfonylphenyl]amino}prop-1-yn-1-yl)-1-(2,2,2-trifluoroethyl)-1H-indol-4-yl]amino}piperidin-1-yl)-3-methoxypropan-2-ol]	+ (+ = 0 μM ≤ SC150 < 0.05 μM)

Second part, the molecule after the results:

SC150 (concentration of the compound required to increase the DNA binding activity by 50%)	SMILES
+ (+ = 0 μM ≤ SC150 < 0.05 μM)	COc1cc(S(N)(=O)=O)ccc1NCC#Cc1cc2c(NC3CCN(C[C@H]4COC(=O)O4)CC3)cccc2n1CC(F)(F)F [Compound 759A, 3-methoxy-4-[(3-{4-[(1-{[(4S)-2-oxo-1,3-dioxolan-4-yl]methyl}piperidin-4-yl)amino]-1-(2,2,2-trifluoroethyl)-1H-indol-2-yl}prop-2-yn-1-yl)amino]benzene-1-sulfonamide]
++ (++ = 0.05 μM ≤ SC150 < 0.1 μM)	COc1cc(C(N)=O)ccc1NCC#Cc1cc2c(N[C@@H]3C[C@@H](C)O[C@@H](C)C3)cccc2n1CC(F)(F)F [Compound 1030A, 3-methoxy-4-{[3-(4-{[(2R,4S,6S)-2,6-dimethyloxan-4-yl]amino}-1-(2,2,2-trifluoroethyl)-1H-indol-2-yl)prop-2-yn-1-yl]amino}benzamide]
+ (+ = 0 μM ≤ SC150 < 0.05 μM)	COc1cc(S(C)(=O)=O)ccc1NCC#Cc1cc2c(NC3CCN(CC(C)(C)OC)CC3)cccc2n1CC(F)(F)F [Compound 692A, 2-{3-[(4-methanesulfonyl-2-methoxyphenyl)amino]prop-1-yn-1-yl}-N-[1-(2-methoxy-2-methylpropyl)piperidin-4-yl]-1-(2,2,2-trifluoroethyl)-1H-indol-4-amine]
+ (+ = 0 μM ≤ SC150 < 0.05 μM)	COc1cc(C(N)=O)ccc1NCC#Cc1cc2c(N[C@@H]3CCO[C@@H](C)C3)cccc2n1CC(F)(F)F [Compound 1020A, 3-methoxy-4-{[3-(4-{[(2S,4R)-2-methyloxan-4-yl]amino}-1-(2,2,2-trifluoroethyl)-1H-indol-2-yl)prop-2-yn-1-yl]amino}benzamide]
+ (+ = 0 μM ≤ SC150 < 0.05 μM)	COc1cc(S(=O)(=O)NC2CCOCC2)ccc1NCC#Cc1cc2c(NC3CCOCC3)cccc2n1CC(F)(F)F [Compound 993A, 3-methoxy-N-(oxan-4-yl)-4-[(3-{4-[(oxan-4-yl)amino]-1-(2,2,2-trifluoroethyl)-1H-indol-2-yl}prop-2-yn-1-yl)amino]benzene-1-sulfonamide]
+ (+ = 0 μM ≤ SC150 < 0.05 μM)	CCC(=O)N1CCC(Nc2cccc3c2cc(C#CCNc2ccc(S(C)(=O)=O)cc2OC)n3CC(F)(F)F)CC1 [Compound 756A]
+ (+ = 0 μM ≤ SC150 < 0.05 μM)	COc1cc(S(C)(=O)=O)ccc1NCC#Cc1cc2c(NC3CCN(CC4CCCO4)CC3)cccc2n1CC(F)(F)F (stereo not shown) [Compound 688A, 2-{3-[(4-methanesulfonyl-2-methoxyphenyl)amino]prop-1-yn-1-yl}-N-{1-[(oxolan-2-yl)methyl]piperidin-4-yl}-1-(2,2,2-trifluoroethyl)-1H-indol-4-amine]
+ (+ = 0 μM ≤ SC150 < 0.05 μM)	COC[C@H](O)CN1CC[C@H](Nc2cccc3c2cc(C#CCNc2ccc(C(=O)OC)cc2OC)n3CC(F)(F)F)[C@H](F)C1 [Compound 879A]
+ (+ = 0 μM ≤ SC150 < 0.05 μM)	COc1cc(S(C)(=O)=O)ccc1NCC#Cc1cc2c(N[C@@H]3CCN4CCC[C@H]4C3)cccc2n1CC(F)(F)F [Compound 764A, N-[(7R,8aS)-octahydroindolizin-7-yl]-2-{3-[(4-methanesulfonyl-2-methoxyphfenyl)amino]prop-1-yn-1-yl}-1-(2,2,2-trifluoroethyl)-1H-indol-4-amine]
